Laboratory results published in patent US11013725B2, “Therapeutic agents for inner ear hearing impairment” (Keio University, priority 2015, dated 2021).

Legend:
[1] = system: inner ear cells derived from iPS cells of patients with Pendred syndrome; assay: Apoptosis under epoxomicin cellular stress (Cleaved caspase 3 staining of pendrin-positive cells); type: cell-based, human
Description: Pendrin-positive cells were induced from iPS cells derived from patients and iPS/ES cells derived from healthy subjects using the above method. The differentiation-induced cells were subjected to the following treatment. In the rapamycin administration group, rapamycin was administered for 3 days. In the cellular stress/rapamycin group, rapamycin (0.2 nM) was administered for 2 days and then epoxomicin (0.5 μM) was administered as cellular stress for 24 hours along with rapamycin. In the cellular stress group, DMSO was administered for 2 days and then only epoxomicin (0.5 μM) was administered as cellular stress for 24 hours. For fluorescent antibody staining, goat anti-pendrin antibody and rabbit anti-Cleaved Caspase 3 antibody were added (1:100 and 1:300, respectively) to the fixed cells on glass slides after antigen retrieval. Cell nuclei were then stained with Hoechst 33258 (diluted 1:1000). […] Pendrin-positive cells were induced from iPS cells derived from patients and iPS/ES cells derived from healthy subjects using the above method. The differentiation-induced cells were subjected to the following. In the rapamycin administration group, rapamycin was administered for 3 days. In the cellular stress/rapamycin group, rapamycin (0.2 nM) was administered for 2 days and then epoxomicin (0.5 μM) was administered as cellular stress for 24 hours along with rapamycin. In the cellular stress group, DMSO was administered for 2 days and then only epoxomicin (0.5 μM) was administered as cellular stress for 24 hours. […] For fluorescent antibody staining, goat anti-pendrin antibody and rabbit anti-Cleaved Caspase 3 antibody were added (1:100 and 1:300, respectively) to the fixed cells on glass slides after antigen retrieval. Cell nuclei were then stained with Hoechst 33258 (diluted 1:1000). […] Pendrin-positive cells were induced from iPS cells derived from patients and iPS/ES cells derived from healthy subjects using the above method. The differentiation-induced cells were subjected to the following treatment. In the calpeptin administration group, calpeptin was administered for 3 days. […]

[2] = system: neurons; settings: stated as known; cited from earlier work
[3] = system: inner ear cells derived from iPS cells of patients with Pendred syndrome; assay: Measurement of cell viability under epoxomicin cellular stress (count of cells positive for pendrin but negative for Cleaved caspase 3); type: cell-based, human
Description: Pendrin-positive cells were induced from iPS cells derived from patients and iPS/ES cells derived from healthy subjects using the above method. The differentiation-induced cells were subjected to the following treatment. In the rapamycin administration group, rapamycin was administered for 3 days. In the cellular stress/rapamycin group, rapamycin (0.2 nM) was administered for 2 days and then epoxomicin (0.5 μM) was administered as cellular stress for 24 hours along with rapamycin. In the cellular stress group, DMSO was administered for 2 days and then only epoxomicin (0.5 μM) was administered as cellular stress for 24 hours. For fluorescent antibody staining, goat anti-pendrin antibody and rabbit anti-Cleaved Caspase 3 antibody were added (1:100 and 1:300, respectively) to the fixed cells on glass slides after antigen retrieval. Cell nuclei were then stained with Hoechst 33258 (diluted 1:1000). […] Pendrin-positive cells were induced from iPS cells derived from patients and iPS/ES cells derived from healthy subjects using the above method. The differentiation-induced cells were subjected to the following treatment. In the rapamycin administration group, rapamycin was administered for 3 days. In the cellular stress/rapamycin group, rapamycin (0.2 nM) was administered for 2 days and then epoxomicin (0.5 μM) was administered as cellular stress for 24 hours along with rapamycin. […]

[4] = system: differentiation-induced inner ear sensory epithelial cells; assay: Administration of gentamicin to differentiation-induced inner ear sensory epithelial cells (cytotoxicity, number of cells); type: cell-based, human; settings: gentamicin injection diluted 80 times, administered for 10 days; FIG. 7
Description: (1-5) Administration of Gentamicin Known to Have Inner Ear Toxicity to Differentiation-Induced Inner Ear Sensory Epithelial Cells
A gentamicin injection diluted 80 times was administered for 10 days to the inner ear sensory epithelial cells whose differentiation had been induced using this method.

For `CCCC[C@@H](C=O)NC(=O)[C@H](CC(C)C)NC(=O)OCc1ccccc1` [Calpeptin], the “apoptosis when cells are stressed” value ([1]; calpeptin 0.5 nM for 2 days, then epoxomicin 0.5 μM for 24 hours along with calpeptin, FIG. 14, reference example) is given as “cannot inhibit apoptosis” and the “apoptosis of neurons in neurodegenerative diseases and the like” value [2] is given as “known to inhibit apoptosis of neurons”.

For `CN(C)C(=N)NC(=N)N` [metformin], the “decrease in the cell viability when cells are stressed” value ([3]; 1 mM or 10 mM metformin for 2 days, then epoxomicin 0.5 μM for 24 hours along with metformin, FIG. 12) was “suppresses the decrease in the cell viability” and the “apoptosis when cells are stressed” value ([1]; 1 mM or 10 mM metformin for 2 days, then epoxomicin 0.5 μM for 24 hours along with metformin, FIG. 13) was “inhibits apoptosis”.

With `CO[C@H]1C[C@@H]2CC[C@@H](C)[C@@](O)(O2)C(=O)C(=O)N2CCCC[C@H]2C(=O)O[C@H]([C@H](C)C[C@@H]2CC[C@@H](O)[C@H](OC)C2)CC(=O)[C@H](C)/C=C(\C)[C@@H](O)[C@@H](OC)C(=O)[C@H](C)C[C@H](C)/C=C/C=C/C=C/1C` [rapamycin] the “decrease in cell viabilities when cells are stressed” value ([3]; rapamycin 0.2 nM for 2 days, then epoxomicin 0.5 μM for 24 hours along with rapamycin, FIG. 10) was “suppresses decrease in cell viabilities” and the “apoptosis when cells are stressed (cells positive for pendrin and Cleaved caspase 3)” value ([1]; rapamycin 0.2 nM for 2 days, then epoxomicin 0.5 μM for 24 hours along with rapamycin, FIG. 11) was “inhibits such apoptosis”.

With gentamicin the “number of cells as compared with a control group (cytotoxicity)” value [4] was “significantly decreased”.
